Data as given in paper PMC12284294 (iScience, 2025).
Where two headings read alike, the source gives them in different places. Ends that are not written are not given here.

Legend:
[1] = system: FPR1, FPR2, FPR3, PMN; format: cell-based, human
[2] = system: human polymorphonuclear granulocytes (PMN; neutrophils); format: cell-based; settings: SARS-CoV-2 omicron B.1.1.529 spike pool peptides, 10 µM, PMN, n=6
[3] = molecular target: T1, FPR1 (Homo sapiens, UniProt P21462); assay: biochemical; format: binding
T1 construct: expressed in transfected cells; host or cells: HEK293T
T1 sequence (P21462 1-350): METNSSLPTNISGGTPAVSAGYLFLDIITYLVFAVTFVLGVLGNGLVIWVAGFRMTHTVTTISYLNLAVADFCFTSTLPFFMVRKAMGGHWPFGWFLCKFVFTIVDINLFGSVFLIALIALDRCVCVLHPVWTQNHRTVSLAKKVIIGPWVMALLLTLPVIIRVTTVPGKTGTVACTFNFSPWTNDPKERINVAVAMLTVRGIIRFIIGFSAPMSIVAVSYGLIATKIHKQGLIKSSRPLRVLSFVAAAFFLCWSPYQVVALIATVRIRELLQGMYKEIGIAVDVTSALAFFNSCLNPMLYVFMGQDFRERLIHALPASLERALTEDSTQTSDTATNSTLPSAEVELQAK

[4] = molecular target: T1, FPR1; format: cell-based
[5] = molecular target: T1, FPR1; assay: cell-based; format: binding
[6] = molecular target: T2, FPR2 (Homo sapiens, UniProt P25090); assay: cell-based; format: binding
T2 construct: expressed in transfected cells; host or cells: HEK293T
T2 sequence (P25090 1-351): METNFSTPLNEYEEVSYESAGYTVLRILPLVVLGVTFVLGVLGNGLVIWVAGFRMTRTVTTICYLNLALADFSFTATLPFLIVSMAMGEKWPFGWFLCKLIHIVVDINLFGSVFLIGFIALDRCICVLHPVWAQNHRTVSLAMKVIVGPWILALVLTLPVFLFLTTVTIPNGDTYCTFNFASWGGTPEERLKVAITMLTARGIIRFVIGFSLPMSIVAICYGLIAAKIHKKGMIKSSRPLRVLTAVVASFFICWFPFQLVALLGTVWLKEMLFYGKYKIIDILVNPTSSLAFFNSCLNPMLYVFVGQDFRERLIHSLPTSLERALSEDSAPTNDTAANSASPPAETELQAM

[7] = molecular target: T3, FPR3 (Homo sapiens, UniProt P25089); assay: cell-based; format: binding
T3 construct: expressed in transfected cells; host or cells: HEK293T
T3 sequence (P25089 1-353): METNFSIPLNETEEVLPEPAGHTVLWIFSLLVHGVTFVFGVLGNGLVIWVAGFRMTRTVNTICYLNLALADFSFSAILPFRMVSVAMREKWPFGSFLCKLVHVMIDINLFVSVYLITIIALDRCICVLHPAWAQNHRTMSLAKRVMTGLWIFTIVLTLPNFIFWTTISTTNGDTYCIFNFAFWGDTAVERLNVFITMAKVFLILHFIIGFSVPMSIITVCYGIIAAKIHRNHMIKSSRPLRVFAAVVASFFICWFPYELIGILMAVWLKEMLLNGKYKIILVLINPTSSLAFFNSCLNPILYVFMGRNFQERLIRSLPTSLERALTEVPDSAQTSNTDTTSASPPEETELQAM

[8] = molecular target: T4, Formyl peptide receptor 1 (human, UniProt P21462 1-350); settings: one partner purified
T4 sequence (looked up): T1 sequence (P21462 1-350)

[9] = molecular target: T5, Formyl peptide receptor 2 (human, UniProt P25090 1-351); settings: one partner purified
T5 sequence (looked up): T2 sequence (P25090 1-351)

[10] = molecular target: T6, Formyl peptide receptor 3 (human, UniProt P25089 1-353); settings: one partner purified
T6 sequence (looked up): T3 sequence (P25089 1-353)

[11] = molecular target: T7, Formyl peptide receptor 3 (human, UniProt P25089 1-353)
T7 chain: T3 sequence (P25089 1-353)

[12] = molecular target: T8, Formyl peptide receptor 2 (human, UniProt P25090 1-351)
T8 chain: T2 sequence (P25090 1-351)

[13] = molecular target: T9, Formyl peptide receptor 1 (human, UniProt P21462 1-350)
T9 chain: T1 sequence (P21462 1-350)

[14] = molecular target: T7, Formyl peptide receptor 3
[15] = molecular target: T8, Formyl peptide receptor 2
[16] = molecular target: T9, Formyl peptide receptor 1
[17] = […], it matches an identified peptide or IgG epitope of COVID-19 patients

QVKQIYKTPPIKYFGGFNFSQILPDPS
Match with activator (region): Receptor [1]: FPR3

QVKQIYKTPPIKYFG
significant PMN activators (group of the spike peptide pool screening) [2]: significant PMN activators
Match with activator (region): Receptor [1]: PMN+ FPR2
Match with activator (region): Receptor [1, 17]: PMN + FPR2

LLLQYGSFCTQLKRALTGI
Match with activator (region): Receptor [1]: FPR3

CC[C@H](C)[C@H](NC(=O)[C@H](Cc1ccc(O)cc1)NC(=O)[C@H](CCC(N)=O)NC(=O)[C@@H](N)CCC(=O)O)C(=O)N[C@@H](CCCCN)C(=O)N[C@@H](Cc1c[nH]c2ccccc12)C(=O)N1CCC[C@H]1C(=O)N[C@@H](Cc1c[nH]c2ccccc12)C(=O)N[C@@H](Cc1ccc(O)cc1)C(=O)N[C@H](C(=O)N[C@@H](Cc1c[nH]c2ccccc12)C(=O)N[C@@H](CC(C)C)C(=O)O)C(C)C [CV3]
IC50 [3]: 3.8 µM

EPEDLPQGFSALEPL
significant PMN activators (group of the spike peptide pool screening) [2]: significant PMN activators
Match with activator (region): Receptor [1, 17]: PMN

NFNFNGLKGTGVLTE
non-activators of FPR1 and PMNs: FPR1 [4]: non-activators of FPR1 and PMNs
non-activators of FPR1 and PMNs: PMNs [2]: non-activators of FPR1 and PMNs
Match with activator (region): Receptor [1, 17]: FPR3

DGYFKIYSKHTPIIV
non-activators of FPR1 and PMNs: FPR1 [4]: non-activators of FPR1 and PMNs
non-activators of FPR1 and PMNs: PMNs [2]: non-activators of FPR1 and PMNs
Match with activator (region): Receptor [1]: FPR2 + FPR3

ITNLCPFDEVFNATR
non-activators of FPR1 and PMNs: FPR1 [4]: non-activators of FPR1 and PMNs
non-activators of FPR1 and PMNs: PMNs [2]: non-activators of FPR1 and PMNs
Match with activator (region): Receptor [1, 17]: FPR3

EQYIKWPWYIWL
Match with activator (region): Receptor [1]: All FPRs + PMN

VNHNAQALNTLVKQLSSKFGAISSVLNDIFS
Match with activator (region): Receptor [1]: FPR3

TYGVGHQPYRVVVLSFELL
Match with activator (region): Receptor [1, 17]: PMN + FPR1

CC[C@H](C)[C@H](NC(=O)[C@H](Cc1ccc(O)cc1)NC(=O)[C@H](Cc1c[nH]c2ccccc12)NC(=O)[C@@H]1CCCN1C(=O)[C@H](Cc1c[nH]c2ccccc12)NC(=O)[C@H](CCCCN)NC(=O)[C@@H](NC(=O)[C@H](Cc1ccc(O)cc1)NC(=O)[C@H](CCC(N)=O)NC(=O)[C@@H](N)CCC(=O)O)[C@@H](C)CC)C(=O)N[C@@H](Cc1c[nH]c2ccccc12)C(=O)N[C@@H](CC(C)C)C(=O)O [CV7]
Kd [5]: 0.014 µM
Kd [6]: 0.489 µM
Kd [7]: 0.347 µM
IC50 ([3]; read-out: IC50 in the BRET assay): 5.1 µM

DYSVLYNLAPFFTFKCYGV
Match with activator (region): Receptor [1, 17]: PMN

KLDSKVSGNYNYLYR
non-activators of FPR1 and PMNs: FPR1 [4]: non-activators of FPR1 and PMNs
non-activators of FPR1 and PMNs: PMNs [2]: non-activators of FPR1 and PMNs

ASYQTQTKSHRRARS
non-activators of FPR1 and PMNs: FPR1 [4]: non-activators of FPR1 and PMNs
non-activators of FPR1 and PMNs: PMNs [2]: non-activators of FPR1 and PMNs

STASALGKLQDVVNH
non-activators of FPR1 and PMNs: FPR1 [4]: non-activators of FPR1 and PMNs
non-activators of FPR1 and PMNs: PMNs [2]: non-activators of FPR1 and PMNs

GHQPYRVVVLSFELL
significant FPR1 activators (group of the spike peptide pool screening) [4]: significant FPR1 activators
significant PMN activators (group of the spike peptide pool screening) [2]: significant PMN activators

KRALTGIAVEQDKNT
non-activators of FPR1 and PMNs: FPR1 [4]: non-activators of FPR1 and PMNs
non-activators of FPR1 and PMNs: PMNs [2]: non-activators of FPR1 and PMNs

KVSGNYNYLYRLFRK
non-activators of FPR1 and PMNs: FPR1 [4]: non-activators of FPR1 and PMNs
non-activators of FPR1 and PMNs: PMNs [2]: non-activators of FPR1 and PMNs
Match with activator (region): Receptor [1, 17]: FPR3

SKFGAISSVLNDIFS
non-activators of FPR1 and PMNs: FPR1 [4]: non-activators of FPR1 and PMNs
non-activators of FPR1 and PMNs: PMNs [2]: non-activators of FPR1 and PMNs

NCVADYSVLYNLAPF
non-activators of FPR1 and PMNs: FPR1 [4]: non-activators of FPR1 and PMNs
non-activators of FPR1 and PMNs: PMNs [2]: non-activators of FPR1 and PMNs

SHRRARSVASQSIIA
non-activators of FPR1 and PMNs: FPR1 [4]: non-activators of FPR1 and PMNs
non-activators of FPR1 and PMNs: PMNs [2]: non-activators of FPR1 and PMNs

CNGVAGFNCYFPLKS
non-activators of FPR1 and PMNs: FPR1 [4]: non-activators of FPR1 and PMNs
non-activators of FPR1 and PMNs: PMNs [2]: non-activators of FPR1 and PMNs

VLPFNDGVYFASIEKSNIIRGWIFGTT
Match with activator (region): Receptor [1]: FPR3

DYSVLYNLAPFFTFKCYGVSPTK
Match with activator (region): Receptor [1, 17]: FPR3

B1: fluorescently labeled N-terminally truncated HCoV-HKU-1 MPR peptide CV2∗ (peptide)
chain: MYVKWPWYVWLL
modifications: also: fluorescently labeled
fold lower binding affinity than the other MPR peptides [8]: ~10 fold
fold lower binding affinity than the other MPR peptides [9]: ~10 fold
fold lower binding affinity than the other MPR peptides [10]: ~10 fold
Kd [11]: > 1 µM
Kd [12]: > 1 µM
Kd [13]: 0.0669 µM

B2: fluorescently labeled HCoV-229E MPR peptide CV1 (peptide)
chain: ETYIKWPWWVWL
modifications: also: fluorescently labeled
Kd [14]: 0.366 µM
Kd [15]: 0.287 µM
Kd [16]: 0.0084 µM

B3: fluorescently labeled SARS-CoV MPR peptide CV3 (peptide)
chain: EQYIKWPWYVWL
modifications: also: fluorescently labeled
Kd [14]: 0.756 µM
Kd [15]: 0.337 µM
Kd [16]: 0.0073 µM
